Source: patent US20260375265A1, “COMPOSITION FOR ALLEVIATING SKIN PIGMENTATION” (LG H & H CO., LTD., priority 2023, published 2026)

Assays:
PPARGC1B [1] = test: qPCR of PPARGC1B mRNA expression in UVB-irradiated mouse melanoma cells; assay type: cell-based; conditions: B16F10, UVB 30 mJ/cm^2 (312 nm), substance one day, appropriate concentration; FIG. 1; UVB alone decreased
Method: (§1) Screening was performed for substances that influence the expression of genes associated with scattered dark spots on skin among various substances having skin-improving efficacy. Changes in the expression of genes associated with scattered dark spots on skin were examined in cells where melanin synthesis was increased by UVB exposure, and substances that restored the expression to the level before UVB exposure were selected.
(§2) Mouse melanoma cells (B16F10; CRL-6475) were purchased from ATCC for use. The purchased cells were cultured in a 37 °C/5% CO2 incubator using a medium prepared by supplementing Dulbecco's Modified Eagle Medium (DMEM-GIBCO) with 10% fetal bovine serum (FBS) and 1% penicillin/streptomycin.
(§3) To analyze the efficacy on changes in the mRNA expression of genes associated with scattered dark spots on skin, mouse melanoma cells were seeded at 2*10^5 cells/well in 6-well plates and cultured in a 37 °C/5% CO2 incubator for one day. After replacing the medium with PBS, 30 mJ/cm^2 of UVB (312 nm) was irradiated using an RMX 3W (Vilber Lourmat) instrument. Substances were added to the medium at appropriate concentrations and cultured for one day under the same conditions. Thereafter, total RNA was obtained using AccuPrep Universal RNA Extraction Kit (Bioneer, K-3140), and cDNA was synthesized using AccuPower® RocketScript Cycle (Bioneer, K-2202). The expression level of each gene was analyzed by performing qPCR using synthesized cDNA and taqman probe (assay ID: AKAP1-Mm00501539_m1, RAB11FIP2-Mm01261268_m1, PPARGC1B-Mm00504730_m1).

[2] = general description; cited from earlier work
PPARGC1B [3] = test: qPCR of PPARGC1B mRNA expression in a-MSH-treated B16F10 cells; assay type: cell-based, mouse; conditions: B16F10, 10 nM a-MSH plus substance, one day, appropriate concentration; FIG. 3
Method: as §1, with “spot pigmentation” for “scattered dark spots on skin”, “having the” for “having”, “a-MSH,” for “UVB exposure,”, “a-MSH treatment” for “UVB exposure”
as §2
as §3, with “skin spot pigmentation,” for “scattered dark spots on skin,”, “[…]” for “2*10^5”, “a fresh medium, 10 nM α-MSH” for “PBS, 30 mJ/cm^2 of UVB (312 nm)”, “treated, and substances” for “irradiated using an RMX 3W (Vilber Lourmat) instrument. Substances”, “RocketScript™” for “RocketScript”, “ASCL2-Mm01268891_m1, PPARGC1B-Mm00504730_m1, TP63-Hs00978349_m1).” for “AKAP1-Mm00501539_m1, RAB11FIP2-Mm01261268_m1, PPARGC1B-Mm00504730_m1).”

[4] = tested on: scattered dark spots on skin; test: Human application trial: customized prescription for high-risk group of scattered dark spots; assay type: in vivo; conditions: twice daily, four weeks
Method: Accordingly, it was aimed to provide specific substances capable of increasing the improvement efficiency of scattered dark spots according to the risk level of developing scattered dark spots on skin, dark skin tone, and/or spot pigmentation.
After receiving approval from the Institutional Review Board (IRB, Korea) (LG-SKEV-2022-09-A), the study was conducted in accordance with the standard operating guidelines and clinical trial standards of the Institutional Review Board of LG Household & Health Care Co., Ltd. Ten healthy adult subjects aged 20-50 with no apparent skin abnormalities were selected. […]
PIE's Janus3 was used to photograph the front and side of the face under normal, polarized, and UV light. […] The pigmentation improvement rate (%) was calculated by determining the percentage reduction in the pigmentation values after four weeks of use compared to the polarized pigmentation values before use.

dark skin tone = test: Human application trial: customized prescription for high-risk group of dark skin tone; assay type: in vivo; conditions: twice daily, four weeks
Method: Accordingly, it was aimed to provide substances capable of increasing the improvement efficiency of dark skin tone according to the risk level of developing dark skin tone.
After receiving approval from the Institutional Review Board (IRB, Korea) (LG-SKEV-2022-09-A), the study was conducted in accordance with the standard operating guidelines and clinical trial standards of the Institutional Review Board of LG Household & Health Care Co., Ltd. Nine healthy adult subjects aged 20-50 with no apparent skin abnormalities were selected.
Based on the genetic polymorphic markers associated with skin tone brightness in Table 2, subjects were classified into low-risk and high-risk groups according to their risk level of developing dark skin tone as follows. • Risk scores (the sum of each genotype multiplied by its respective effect size (β)) for the five genetic markers were less than −0.193→low-risk group (n=4). • Risk scores (the sum of each genotype multiplied by its respective effect size (β)) for the five genetic markers were −0.193 or higher→high-risk group (n=5).
The same as in Example 4-2 […]
PIE's Janus3 was used to photograph the front and side of the face under normal, polarized, and UV light. […] The pigmentation improvement was calculated by determining the increase in the skin tone brightness values after four weeks of use compared to the skin tone brightness values before use.

[5] = general description; very acidic; concentration not given; cited from earlier work
ASCL2 = test: qPCR of ASCL2 mRNA expression in a-MSH-treated B16F10 cells; assay type: cell-based, mouse; conditions: B16F10, 10 nM a-MSH plus substance, one day, appropriate concentration; FIG. 3
Method: as §1, with “spot pigmentation” for “scattered dark spots on skin”, “having the” for “having”, “a-MSH,” for “UVB exposure,”, “a-MSH treatment” for “UVB exposure”
as §2
To analyze the efficacy on changes in the mRNA expression of genes associated with skin spot pigmentation, mouse melanoma cells were seeded at […] cells/well in 6-well plates and cultured in a 37 °C/5% CO2 incubator for one day. After replacing the medium with a fresh medium, 10 nM α-MSH was treated, and substances were added to the medium at appropriate concentrations and cultured for one day under the same conditions. […] The expression level of each gene was analyzed by performing qPCR using synthesized cDNA and taqman probe (assay ID: ASCL2-Mm01268891_m1, PPARGC1B-Mm00504730_m1, TP63-Hs00978349_m1).

RAB11FIP2 = test: qPCR of RAB11FIP2 mRNA expression in UVB-irradiated mouse melanoma cells; assay type: cell-based; conditions: B16F10, UVB 30 mJ/cm^2 (312 nm), substance one day, appropriate concentration; FIG. 1; UVB alone decreased
Method: as §1, §2
as §3, with “Thereafter, total RNA was obtained using AccuPrep Universal RNA Extraction Kit (Bioneer, K-3140), and cDNA was synthesized using AccuPower® RocketScript Cycle (Bioneer, K-2202).” left out

mouse melanoma cells = test: Inhibition of melanin production increased by UVB (scattered dark spots); assay type: cell-based; conditions: light or radiation study, 48 h, 25 ppm DIPA alone, UVB 30 mJ/cm^2, two days, FIG. 4, read-out: reduction of melanin production (Y)
Method: In detail, mouse melanoma cells were seeded at 2*10^5 cells/well in 6-well plates and cultured in a 37 °C/5% CO2 incubator for one day, followed by irradiation with 30 mJ/cm^2 of UVB (312 nm). Each of media comprising appropriate concentrations and combinations of substances was added and cultured again in a 37 °C/5% CO2 incubator for two days to determine whether or not the substances inhibited the melanin production increased by UVB. Cells attached to the plates were collected in PBS and centrifuged to obtain cell pellets. The cell pellets were visually inspected and photographed. The cell pellets were dissolved in a 1 N NaOH (sodium hydroxide) solution comprising 10% dimethyl sulfoxide (DMSO) at 80 °C for 10 minutes, and placed in a 96-well plate, and absorbance at 405 nm was measured using an Epoch (Biotek) instrument. Melanin was quantified using the measured absorbance and normalized to the sample protein concentration to determine melanin concentration. The inhibition rate of melanin production of the sample was calculated as a ratio of the melanin concentration of the sample treatment group with respect to the melanin concentration increased by UVB.
E=(X+Y)−(X*Y/100) Colby equation

KITLG = test: qPCR of KITLG mRNA expression in UVB-irradiated human keratinocytes (HaCaT); assay type: cell-based; conditions: UVB 30 mJ/cm^2 (312 nm), substance one day, appropriate concentration, FIG. 2, UVB alone increased
Method: Screening was performed for substances that influence the expression of genes associated with dark skin tone among various substances having skin-improving efficacy. Changes in the expression of genes associated with dark skin tone were examined in cells where melanin synthesis was increased by a-MSH, and substances that restored the expression to the level before a-MSH treatment were selected.
To analyze the efficacy on changes in the mRNA expression of genes associated with dark skin tone, RT-qPCR experiment was conducted. Cells were cultured in a 37 °C/5% CO2 incubator for one day. To assess the change of KITLG expression by UVB, the medium of human keratinocytes (HaCaT) was replaced with PBS, and 30 mJ/cm^2 of UVB (312 nm) was irradiated using an RMX 3W (Vilber Lourmat) instrument. The medium was replaced with a fresh medium and cultured for one day. To assess the change in KITLG expression by treatment with substances, the cells were treated with appropriate concentrations of substances along with a fresh medium and cultured for one day. […] The expression level of each gene was analyzed by performing qPCR using synthesized cDNA and taqman probe (assay ID: OCA2-Mm00498969_m1, BNC2-Mm00556284_m1, RAB32-Mm00458960_m1, KITLG-Hs00241497_m1).

[6] = 8% vitamin C essence, high-risk group (n=5)

NC(=O)c1cccnc1 [niacinamide, reference compound]
change of PPARGC1B expression (PPARGC1B [1]): increased | solubility in water [2]: dissolves well in water

O=C1O[C@H]([C@@H](O)CO)C(O)=C1O [ascorbic acid]
change of PPARGC1B expression (PPARGC1B [3]): increased | pigmentation improvement in the high-risk group [4, 6]: did not improve pigmentation | pigmentation improvement in the low-risk group ([4]; low-risk group (n=5), FIGS. 10, 11): did not improve pigmentation | pigmentation improvement in the high-risk group (dark skin tone; [6]): did not improve pigmentation | pigmentation improvement in the low-risk group (dark skin tone; low-risk group (n=4), FIGS. 12, 13): slightly improved pigmentation

O=C(O)c1ccccc1O [salicylic acid, reference compound]
change of PPARGC1B expression (PPARGC1B [1]): increased | pH [5]: 2.4

tocopherol
change of ASCL2 expression (ASCL2): decreasing

CC(C)OC(=O)CCCCC(=O)OC(C)C [diisopropyl adipate (DIPA), diisopropyl adipate]
change of RAB11FIP2 expression (RAB11FIP2): increasing | inhibition at 25 ppm (mouse melanoma cells): ~1.5%

O=c1cc(-c2ccccc2)oc2cc(O)cc(O)c12 [chrysin, 5,7-dihydroxyflavone]
change of KITLG expression (KITLG): decreasing
